Test results published in US9540389B2, “Antimicrobial potentiators” (priority 2013, dated 2017).
Converted amounts (≈) assume the structure as drawn. Where two headings read alike, the source gives them in different places.

Tests used:
[1] = tested on: Escherichia coli 285 (AB1157, CIPR, overexpresses efflux); test: microbe, parasite or virus in culture; assay type: cell-based; details: for MIC: Escherichia coli
Description: (§1) • Strains and Reagents. The following strains were obtained from the Keio collection (Baba, et al.: Construction of Escherichia coli K-12 in-frame, single-gene knockout mutants: the Keio collection. In Mol Syst Biol, vol. 2, pp. 2006 0008, (2006)): JW0451 (ΔacrB::kan), JW5503 (ΔtolC::kan), JW3234 (ΔacrF::kan), JW2661 (ΔemrB::kan), JW0863 (ΔmacB::kan). The deletion mutations in each of these strains were transferred to AB1157 using P1 phage transduction (see Table 1). The construction of the E. coli cell-based reporter strain (SOS-XXX) that was used for high throughput screening is described in detail in the supplementary information. […] Irgasan was a generous gift from Ciba Speciality Chemicals, Inc. (High Point, N.C.). Hoechst 33342 (H33342) was purchased from Molecular Probes (Eugene, Oreg.). […] Luria Broth (Miller) and agar were purchased as prepared dehydrated media from Becton Dickenson (Franklin Lakes, N.J.). The compound libraries used in high-throughput screens were purchased from Chembridge (San Diego, Calif.), ChemDiv (San Diego, Calif.), and TimTec (Newark, Del.). MBX2319 was synthesized by Microbiotix, Inc. • Antibacterial Activity Assays. The minimal inhibitory concentration (MIC) of antibacterial agents and biocides were determined using the microbroth dilution method essentially as described in the CLSI protocol M7-A7 (CLSI: Method for dilution antimicrobial susceptibility testing for bacteria that grow aerobically; Approved standard-document M7-A7. In Clinical and Laboratory Standards Institute document M7-A7, Clinical and Laboratory Standards Institute, Wayne, Pa., (2006)), with the following exceptions. LB media was used instead of MHB. […] The final concentration of DMSO in each assay was 2%. […] MIC assays were performed in triplicate and the geometric mean was calculated. Checkerboard MIC assays using an EPI and an antibacterial agent were performed essentially as described (Pillai, et al.: Antimicrobial Combinations. In Antibiotics in Laboratory Medicine, ed. by V. Lorian, pp. 365-440, Lippincott Williams & Wilkins, Philadelphia, Pa., (2005)), with the same modifications used for the MIC assays described above. • Time-Kill Assays. Killing curve assays were performed essentially as described (Pillai, et al.: Antimicrobial Combinations. In Antibiotics in Laboratory Medicine, ed. by V. Lorian, pp. 365-440, Lippincott Williams & Wilkins, Philadelphia, Pa., (2005)). Exponential bacterial cultures grown in LB were diluted to a cell density of ˜1×10^7 in LB followed by addition of CIP and/or an EPI. Viability was monitored over 2-4 hours by making serial dilutions in saline and spotting 5 μl of each dilution onto the surface of an LB agar plate in triplicate. Colonies were counted after the plates were incubated at 37° C. for 16-18 hr, colony forming units (CFU) per ml were calculated, and the average and standard deviation for the three replicates was determined. For treatments that decreased CFU/ml below the limit of detection for the spot plating method, the 100 μl samples were diluted into 5 ml LB top agar, were poured onto LB agar plates, and incubated for 18 hr at 37° C. To calculate the fraction of the control for each sample, the average CFU/ml values for treated samples were divided by those from the same sample at 0 h (time=0). Each experiment was repeated at least three times, and a representative experiment is shown. • H33342 Accumulation Assay. The rate of accumulation of the fluorescent dye Hoechst 33342 (H33342), which is a substrate of a wide variety of bacterial efflux pumps (van den Berg van Saparoea, et al., Biochemistry, vol. 44, pp. 16931-16938, (2005)), can be used to estimate the activity of the major efflux pumps in E. coli and many other bacterial species. The H33342 accumulation assay was used to evaluate the effect of EPIs on the activity of the AcrAB-TolC efflux pump in several bacterial species essentially as described (Coldham, et al., J Antimicrob Chemother, vol. 65, pp. 1655-1663, (2010)). […]

[2] = tested on: Escherichia coli 287 (AB1157, CIPR, overexpresses efflux); test: microbe, parasite or virus in culture; assay type: cell-based; details: for MIC: Escherichia coli
Description: as §1

[3] = Solubility in phosphate buffers; assay type: physicochemical; details: phosphate buffer, aqueous buffer, read-out: solubility limit
AcrAB-TolC efflux pump = AcrAB-TolC efflux pump (Escherichia coli, UniProt P31224); test: H33342 accumulation assay; assay type: cell-based; design: endogenous in cells; host or cells: E. coli 331 (fluoroquinolone-resistant); details: E. coli 331 (CIPR); 25 μM
[4] = tested on: Escherichia coli AB1157 ΔacrF; test: Checkerboard MIC assay (antibacterial agent + MBX2319); assay type: cell-based; details: for MIC: Escherichia coli
Description: as §1

[5] = tested on: Escherichia coli AB1157 ΔtolC; test: as above; assay type: cell-based; details: for MIC: Escherichia coli
Description: as §1

[6] = tested on: Escherichia coli AB1157 (WT); test: as above; assay type: cell-based; details: for MIC: Escherichia coli
Description: as §1

[7] = tested on: Escherichia coli AB1157 ΔacrB; test: as above; assay type: cell-based; details: for MIC: Escherichia coli
Description: as §1

Escherichia coli AB1157 = test: microbe, parasite or virus in culture
[8] = read-out: MIC (μg/ml) with MBX2319 at concn (μM) of: 0

Chain of AcrAB-TolC efflux pump (P31224 whole entry): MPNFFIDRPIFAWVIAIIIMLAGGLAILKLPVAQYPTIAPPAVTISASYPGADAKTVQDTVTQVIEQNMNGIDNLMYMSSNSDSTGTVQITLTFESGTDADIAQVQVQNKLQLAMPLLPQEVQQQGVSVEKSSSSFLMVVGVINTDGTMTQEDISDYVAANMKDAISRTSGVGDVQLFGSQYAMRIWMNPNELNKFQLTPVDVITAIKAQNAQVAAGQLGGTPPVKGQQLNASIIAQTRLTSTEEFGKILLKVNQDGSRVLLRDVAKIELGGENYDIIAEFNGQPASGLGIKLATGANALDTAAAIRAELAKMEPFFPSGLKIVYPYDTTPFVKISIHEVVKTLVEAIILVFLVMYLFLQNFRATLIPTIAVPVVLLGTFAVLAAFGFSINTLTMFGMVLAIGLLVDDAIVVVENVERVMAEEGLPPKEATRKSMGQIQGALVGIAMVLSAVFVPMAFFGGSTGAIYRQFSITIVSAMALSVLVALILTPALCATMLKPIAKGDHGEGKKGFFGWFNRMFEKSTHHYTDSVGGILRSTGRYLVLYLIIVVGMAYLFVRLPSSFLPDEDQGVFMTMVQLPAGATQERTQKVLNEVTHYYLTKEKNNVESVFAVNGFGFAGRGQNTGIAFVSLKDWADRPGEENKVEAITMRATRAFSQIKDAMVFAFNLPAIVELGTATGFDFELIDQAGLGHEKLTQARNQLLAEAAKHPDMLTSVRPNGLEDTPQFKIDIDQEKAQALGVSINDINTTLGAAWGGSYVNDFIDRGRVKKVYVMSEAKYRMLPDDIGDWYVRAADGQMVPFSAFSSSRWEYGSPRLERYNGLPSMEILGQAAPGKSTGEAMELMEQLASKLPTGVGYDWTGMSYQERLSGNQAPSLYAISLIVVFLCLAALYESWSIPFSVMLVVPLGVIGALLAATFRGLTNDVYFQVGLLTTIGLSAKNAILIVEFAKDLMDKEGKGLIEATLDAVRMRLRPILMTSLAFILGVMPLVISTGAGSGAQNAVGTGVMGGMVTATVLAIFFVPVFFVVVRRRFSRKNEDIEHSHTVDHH
Chain of AcrAB-TolC efflux pump (P0AE06 25-397, further chain): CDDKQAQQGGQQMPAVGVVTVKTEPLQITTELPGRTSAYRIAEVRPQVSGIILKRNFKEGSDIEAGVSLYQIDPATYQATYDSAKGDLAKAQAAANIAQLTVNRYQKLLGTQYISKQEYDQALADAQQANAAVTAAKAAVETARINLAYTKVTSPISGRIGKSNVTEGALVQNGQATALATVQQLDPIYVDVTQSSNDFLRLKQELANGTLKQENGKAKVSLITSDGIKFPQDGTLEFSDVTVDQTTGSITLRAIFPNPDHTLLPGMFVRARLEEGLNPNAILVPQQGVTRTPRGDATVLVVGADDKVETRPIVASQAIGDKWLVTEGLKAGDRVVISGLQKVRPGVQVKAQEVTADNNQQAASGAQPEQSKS
Chain of AcrAB-TolC efflux pump (P02930 23-493, further chain): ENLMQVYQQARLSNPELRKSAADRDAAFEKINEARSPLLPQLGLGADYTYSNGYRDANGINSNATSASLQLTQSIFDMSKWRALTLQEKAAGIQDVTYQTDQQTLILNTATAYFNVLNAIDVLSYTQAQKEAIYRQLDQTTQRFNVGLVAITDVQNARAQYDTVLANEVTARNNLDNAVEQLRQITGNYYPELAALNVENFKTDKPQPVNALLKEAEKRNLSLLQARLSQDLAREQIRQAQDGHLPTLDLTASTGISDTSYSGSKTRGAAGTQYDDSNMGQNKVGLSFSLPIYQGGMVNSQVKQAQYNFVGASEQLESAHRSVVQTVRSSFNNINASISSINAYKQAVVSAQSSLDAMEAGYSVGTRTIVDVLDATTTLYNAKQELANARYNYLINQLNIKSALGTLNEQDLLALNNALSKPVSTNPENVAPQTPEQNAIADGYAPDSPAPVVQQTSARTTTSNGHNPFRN

CC1(C)Cc2c(C#N)c(SCCc3ccccc3)nc(N3CCOCC3)c2CO1 [MBX2319]
potentiation of the antibacterial activity of CIP, LEV, and PIP ([1]; E. coli strain 285): 4-8 fold | MIC ([1]; read-out: MIC (μM) MBX2319): ≥ 100 µM | potentiation of the antibacterial activity of CIP, LEV, and PIP ([2]; E. coli strain 287): 4-8 fold | MIC ([2]; read-out: MIC (μM) MBX2319): ≥ 100 µM | solubility [3]: 15 to 20 µM (≈ 6.14 to 8.19 µg/mL) | H33342 accumulation (AcrAB-TolC efflux pump): weak activity | MIC ([4]; read-out: MIC (μM) MBX2319): ≥ 100 µM | MIC ([5]; read-out: MIC (μM) MBX2319): ≥ 100 µM | MIC ([6]; MBX2319 alone, strain WT, read-out: MIC (μM) MBX2319): ≥ 100 µM | decrease of the MIC of CIP by MBX2319 ([6]; checkerboard, E. coli AB1157, ciprofloxacin): 2 fold | decrease of the MIC of LEV by MBX2319 ([6]; checkerboard, E. coli AB1157, levofloxacin): 4 fold | decrease of the MIC of PIP by MBX2319 ([6]; checkerboard, E. coli AB1157, piperacillin): 8 fold | MIC ([7]; read-out: MIC (μM) MBX2319): ≥ 100 µM

CCN1CCN(C(=O)N[C@@H](C(=O)N[C@@H]2C(=O)N3[C@@H]2SC(C)(C)[C@@H]3C(=O)O)c2ccccc2)C(=O)C1=O [Piperacillin, piperacillin]
MIC (μg/ml) with MBX2319 at concn (μM) of: 1.56 ([1]; 285, MBX2319 1.56 μM): 4 µg/mL | MIC (μg/ml) with MBX2319 at concn (μM) of: 3.13 ([1]; 285, MBX2319 3.13 μM): 2 µg/mL | MIC (μg/ml) with MBX2319 at concn (μM) of: 6.25 ([1]; 285, MBX2319 6.25 μM): 2 µg/mL | MIC (μg/ml) with MBX2319 at concn (μM) of: 25 ([1]; 285, MBX2319 25 μM): 2 µg/mL | MIC (μg/ml) with MBX2319 at concn (μM) of: 50 ([1]; 285, MBX2319 50 μM): 2 µg/mL | MIC (μg/ml) with MBX2319 at concn (μM) of: 12.5 ([1]; 285, MBX2319 […]): 2 µg/mL | MIC ratios mutant ([1]; 285, MIC (WT)/MIC (mutant) in the absence of EPI): 0.5 | MIC ratios 2319 ([1]; 285, highest ratio of MIC (no compound)/MIC (MBX2319)): 4 | MIC [1, 8]: 8 µg/mL | MIC (μg/ml) with MBX2319 at concn (μM) of: 1.56 ([2]; 287, MBX2319 1.56 μM): 8 µg/mL | MIC (μg/ml) with MBX2319 at concn (μM) of: 3.13 ([2]; 287, MBX2319 3.13 μM): 4 µg/mL | MIC (μg/ml) with MBX2319 at concn (μM) of: 6.25 ([2]; 287, MBX2319 6.25 μM): 4 µg/mL | MIC (μg/ml) with MBX2319 at concn (μM) of: 25 ([2]; 287, MBX2319 25 μM): 2 µg/mL | MIC (μg/ml) with MBX2319 at concn (μM) of: 50 ([2]; 287, MBX2319 50 μM): 2 µg/mL | MIC (μg/ml) with MBX2319 at concn (μM) of: 12.5 ([2]; 287, MBX2319 […]): 2 µg/mL | MIC ratios mutant ([2]; 287, MIC (WT)/MIC (mutant) in the absence of EPI): 0.25 | MIC ratios 2319 ([2]; 287, highest ratio of MIC (no compound)/MIC (MBX2319)): 8 | MIC [2, 8]: 16 µg/mL | MIC [4, 8]: 4 µg/mL | MIC (μg/ml) with MBX2319 at concn (μM) of: 1.56 ([4]; ΔacrF, MBX2319 1.56 μM): 2 µg/mL | MIC (μg/ml) with MBX2319 at concn (μM) of: 3.13 ([4]; ΔacrF, MBX2319 3.13 μM): 1 µg/mL | MIC (μg/ml) with MBX2319 at concn (μM) of: 6.25 ([4]; ΔacrF, MBX2319 6.25 μM): 0.5 µg/mL | MIC (μg/ml) with MBX2319 at concn (μM) of: 25 ([4]; ΔacrF, MBX2319 25 μM): 0.5 µg/mL | MIC (μg/ml) with MBX2319 at concn (μM) of: 50 ([4]; ΔacrF, MBX2319 50 μM): 0.5 µg/mL | MIC (μg/ml) with MBX2319 at concn (μM) of: 12.5 ([4]; ΔacrF, MBX2319 […]): 0.5 µg/mL | MIC ratios mutant ([4]; ΔacrF, MIC (WT)/MIC (mutant) in the absence of EPI): 1 | MIC ratios 2319 ([4]; ΔacrF, highest ratio of MIC (no compound)/MIC (MBX2319)): 8 | MIC [5, 8]: 0.125 µg/mL | MIC (μg/ml) with MBX2319 at concn (μM) of: 1.56 ([5]; ΔtolC, MBX2319 1.56 μM): 0.125 µg/mL | MIC (μg/ml) with MBX2319 at concn (μM) of: 3.13 ([5]; ΔtolC, MBX2319 3.13 μM): 0.125 µg/mL | MIC (μg/ml) with MBX2319 at concn (μM) of: 6.25 ([5]; ΔtolC, MBX2319 6.25 μM): 0.125 µg/mL | MIC (μg/ml) with MBX2319 at concn (μM) of: 25 ([5]; ΔtolC, MBX2319 25 μM): 0.125 µg/mL | MIC (μg/ml) with MBX2319 at concn (μM) of: 50 ([5]; ΔtolC, MBX2319 50 μM): 0.125 µg/mL | MIC (μg/ml) with MBX2319 at concn (μM) of: 12.5 ([5]; ΔtolC, MBX2319 […]): 0.125 µg/mL | MIC ratios mutant ([5]; ΔtolC, MIC (WT)/MIC (mutant) in the absence of EPI): 32 | MIC ratios 2319 ([5]; ΔtolC, highest ratio of MIC (no compound)/MIC (MBX2319)): 1 | MIC ([6]; WT, MBX2319 0 μM, read-out: MIC (μg/ml) with MBX2319 at concn (μM) of: 0): 4 µg/mL | MIC (μg/ml) with MBX2319 at concn (μM) of: 1.56 ([6]; WT, MBX2319 1.56 μM): 2 µg/mL | MIC (μg/ml) with MBX2319 at concn (μM) of: 3.13 ([6]; WT, MBX2319 3.13 μM): 1 µg/mL | MIC (μg/ml) with MBX2319 at concn (μM) of: 6.25 ([6]; WT, MBX2319 6.25 μM): 1 µg/mL | MIC (μg/ml) with MBX2319 at concn (μM) of: 25 ([6]; WT, MBX2319 25 μM): 0.5 µg/mL | MIC (μg/ml) with MBX2319 at concn (μM) of: 50 ([6]; WT, MBX2319 50 μM): 0.5 µg/mL | MIC (μg/ml) with MBX2319 at concn (μM) of: 12.5 ([6]; WT, MBX2319 […]): 0.5 µg/mL | MIC ratios mutant ([6]; WT, MIC (WT)/MIC (mutant) in the absence of EPI): 1 | MIC ratios 2319 ([6]; WT, highest ratio of MIC (no compound)/MIC (MBX2319)): 8 | MIC [7, 8]: 0.25 µg/mL | MIC (μg/ml) with MBX2319 at concn (μM) of: 1.56 ([7]; ΔacrB, MBX2319 1.56 μM): 0.125 µg/mL | MIC (μg/ml) with MBX2319 at concn (μM) of: 3.13 ([7]; ΔacrB, MBX2319 3.13 μM): 0.125 µg/mL | MIC (μg/ml) with MBX2319 at concn (μM) of: 6.25 ([7]; ΔacrB, MBX2319 6.25 μM): 0.125 µg/mL | MIC (μg/ml) with MBX2319 at concn (μM) of: 25 ([7]; ΔacrB, MBX2319 25 μM): 0.125 µg/mL | MIC (μg/ml) with MBX2319 at concn (μM) of: 50 ([7]; ΔacrB, MBX2319 50 μM): 0.125 µg/mL | MIC (μg/ml) with MBX2319 at concn (μM) of: 12.5 ([7]; ΔacrB, MBX2319 […]): 0.125 µg/mL | MIC ratios mutant ([7]; ΔacrB, MIC (WT)/MIC (mutant) in the absence of EPI): 16 | MIC ratios 2319 ([7]; ΔacrB, highest ratio of MIC (no compound)/MIC (MBX2319)): 2 | MIC (Escherichia coli AB1157): 4 µg/mL (≈ 7.73 µM)
